Test results taken from US20250255867A1 (Kadmon Corporation, LLC, priority 2022, published 2025).

CC(C)NC(=O)COc1cccc(-c2nc(Nc3ccc4[nH]ncc4c3)c3ccccc3n2)c1 [Belumosudil, 2-{3-[4-(1H-indazol-5-ylamino)-2-quinazolinyl]phenoxy}-N-(propan-2-yl) acetamide]
Urinary retention: # Events (Cohort 2 200 mg BID): 2 | Urinary retention: Affected/At Risk (Cohort 2 200 mg BID): 1/16 | Urinary retention: Affected/At Risk (%) (Cohort 2 200 mg BID): (6.25%) | Urinary tract infection: # Events (Cohort 2 200 mg BID): 2 | Urinary tract infection: Affected/At Risk (Cohort 2 200 mg BID): 2/16 | Urinary tract infection: Affected/At Risk (%) (Cohort 2 200 mg BID): (12.5%) | Urinary tract pain: # Events (Cohort 2 200 mg BID): 1 | Urinary tract pain: Affected/At Risk (Cohort 2 200 mg BID): 1/16 | Urinary tract pain: Affected/At Risk (%) (Cohort 2 200 mg BID): (6.25%) | Urine output decreased: # Events (Cohort 2 200 mg BID): 1 | Urine output decreased: Affected/At Risk (Cohort 2 200 mg BID): 1/16 | Urine output decreased: Affected/At Risk (%) (Cohort 2 200 mg BID): (6.25%) | Vascular access complication: # Events (Cohort 2 200 mg BID): 1 | Vascular access complication: Affected/At Risk (Cohort 2 200 mg BID): 1/16 | Vascular access complication: Affected/At Risk (%) (Cohort 2 200 mg BID): (6.25%) | Vertigo: # Events (Cohort 2 200 mg BID): 0 | Vertigo: Affected/At Risk (Cohort 2 200 mg BID): 0/16 | Vertigo: Affected/At Risk (%) (Cohort 2 200 mg BID): (0%) | Vision blurred: # Events (Cohort 2 200 mg BID): 2 | Vision blurred: Affected/At Risk (Cohort 2 200 mg BID): 2/16 | Vision blurred: Affected/At Risk (%) (Cohort 2 200 mg BID): (12.5%) | Vomiting: # Events (Cohort 2 200 mg BID): 3 | Vomiting: Affected/At Risk (Cohort 2 200 mg BID): 3/16 | Vomiting: Affected/At Risk (%) (Cohort 2 200 mg BID): (18.75%) | Weight decreased: # Events (Cohort 2 200 mg BID): 0 | Weight decreased: Affected/At Risk (Cohort 2 200 mg BID): 0/16 | Weight decreased: Affected/At Risk (%) (Cohort 2 200 mg BID): (0%) | Weight increased: # Events (Cohort 2 200 mg BID): 2 | Weight increased: Affected/At Risk (Cohort 2 200 mg BID): 1/16 | Weight increased: Affected/At Risk (%) (Cohort 2 200 mg BID): (6.25%) | White blood cell count decreased: # Events (Cohort 2 200 mg BID): 0 | White blood cell count decreased: Affected/At Risk (Cohort 2 200 mg BID): 0/16 | White blood cell count decreased: Affected/At Risk (%) (Cohort 2 200 mg BID): (0%) | ALT/AST increased all grade, No. (Cohort 2 200 mg BID n=16): 5 | ALT/AST increased grade ≥3, No. (Cohort 2 200 mg BID n=16): 2 | Anemia grade ≥3, No. (Cohort 2 200 mg BID n=16): 1 | Any AE, No. of patients (Cohort 2 200 mg BID n=16): 16 | Cough all grade, No. (Cohort 2 200 mg BID n=16): 4 | Death, No. (Cohort 2 200 mg BID n=16): 0 | Diarrhea all grade, No. (Cohort 2 200 mg BID n=16): 5 | Drug-related AE, No. (Cohort 2 200 mg BID n=16): 8 | Drug-related SAE, No. (Cohort 2 200 mg BID n=16): 0 | Dyspnea all grade, No. (Cohort 2 200 mg BID n=16): 6 | Dyspnea grade ≥3, No. (Cohort 2 200 mg BID n=16): 2 | Fatigue all grade, No. (Cohort 2 200 mg BID n=16): 3 | Grade ≥3 AE, No. (Cohort 2 200 mg BID n=16): 10 | Headache all grade, No. (Cohort 2 200 mg BID n=16): 3 | Hyperglycemia grade ≥3, No. (Cohort 2 200 mg BID n=16): 0 | Hypertension all grade, No. (Cohort 2 200 mg BID n=16): 2 | Hypoxia grade ≥3, No. (Cohort 2 200 mg BID n=16): 1 | Lung infection or pneumonia grade ≥3, No. (Cohort 2 200 mg BID n=16): 2 | Nausea all grade, No. (Cohort 2 200 mg BID n=16): 4 | Peripheral edema all grade, No. (Cohort 2 200 mg BID n=16): 4 | SAE, No. (Cohort 2 200 mg BID n=16): 6 | URI all grade, No. (Cohort 2 200 mg BID n=16): 9 | Patients with relative dose intensity >95% (Cohort 3): 71% | Abdominal distension: # Events (Cohort 3 400 mg QD): 1 | Abdominal distension: Affected/At Risk (Cohort 3 400 mg QD): 1/21 | Abdominal distension: Affected/At Risk (%) (Cohort 3 400 mg QD): (4.76%) | Abdominal pain upper: # Events (Cohort 3 400 mg QD): 0 | Abdominal pain upper: Affected/At Risk (Cohort 3 400 mg QD): 0/21 | Abdominal pain upper: Affected/At Risk (%) (Cohort 3 400 mg QD): (0%) | Abdominal pain: # Events (Cohort 3 400 mg QD): 6 | Abdominal pain: Affected/At Risk (Cohort 3 400 mg QD): 4/21 | Abdominal pain: Affected/At Risk (%) (Cohort 3 400 mg QD): (19.05%) | Actinic keratosis: # Events (Cohort 3 400 mg QD): 1 | Actinic keratosis: Affected/At Risk (Cohort 3 400 mg QD): 1/21 | Actinic keratosis: Affected/At Risk (%) (Cohort 3 400 mg QD): (4.76%) | Acute kidney injury: # Events (Cohort 3 400 mg QD): 6 | Acute kidney injury: Affected/At Risk (Cohort 3 400 mg QD): 2/21 | Acute kidney injury: Affected/At Risk (%) (Cohort 3 400 mg QD): (9.52%) | Acute respiratory distress syndrome: # Events (Cohort 3 400 mg QD): 0 | Acute respiratory distress syndrome: Affected/At Risk (Cohort 3 400 mg QD): 0/21 | Acute respiratory distress syndrome: Affected/At Risk (%) (Cohort 3 400 mg QD): (0%) | Adrenal insufficiency: # Events (Cohort 3 400 mg QD): 0 | Adrenal insufficiency: Affected/At Risk (Cohort 3 400 mg QD): 0/21 | Adrenal insufficiency: Affected/At Risk (%) (Cohort 3 400 mg QD): (0%) | Alanine aminotransferase increased: # Events (Cohort 3 400 mg QD): 2 | Alanine aminotransferase increased: Affected/At Risk (Cohort 3 400 mg QD): 2/21 | Alanine aminotransferase increased: Affected/At Risk (%) (Cohort 3 400 mg QD): (9.52%) | Anaemia: # Events (Cohort 3 400 mg QD): 0 | Anaemia: Affected/At Risk (Cohort 3 400 mg QD): 0/21 | Anaemia: Affected/At Risk (%) (Cohort 3 400 mg QD): (0%) | Anal incontinence: # Events (Cohort 3 400 mg QD): 0 | Anal incontinence: Affected/At Risk (Cohort 3 400 mg QD): 0/21 | Anal incontinence: Affected/At Risk (%) (Cohort 3 400 mg QD): (0%) | Anxiety: # Events (Cohort 3 400 mg QD): 3 | Anxiety: Affected/At Risk (Cohort 3 400 mg QD): 3/21 | Anxiety: Affected/At Risk (%) (Cohort 3 400 mg QD): (14.29%) | Arthralgia: # Events (Cohort 3 400 mg QD): 6 | Arthralgia: Affected/At Risk (Cohort 3 400 mg QD): 5/21 | Arthralgia: Affected/At Risk (%) (Cohort 3 400 mg QD): (23.81%) | Aspartate aminotransferase increased: # Events (Cohort 3 400 mg QD): 1 | Aspartate aminotransferase increased: Affected/At Risk (Cohort 3 400 mg QD): 1/21 | Aspartate aminotransferase increased: Affected/At Risk (%) (Cohort 3 400 mg QD): (4.76%) | Asthenia: # Events (Cohort 3 400 mg QD): 0 | Asthenia: Affected/At Risk (Cohort 3 400 mg QD): 0/21 | Asthenia: Affected/At Risk (%) (Cohort 3 400 mg QD): (0%) | Atelectasis: # Events (Cohort 3 400 mg QD): 0 | Atelectasis: Affected/At Risk (Cohort 3 400 mg QD): 0/21 | Atelectasis: Affected/At Risk (%) (Cohort 3 400 mg QD): (0%) | Back pain: # Events (Cohort 3 400 mg QD): 1 | Back pain: Affected/At Risk (Cohort 3 400 mg QD): 1/21 | Back pain: Affected/At Risk (%) (Cohort 3 400 mg QD): (4.76%) | Balance disorder: # Events (Cohort 3 400 mg QD): 0 | Balance disorder: Affected/At Risk (Cohort 3 400 mg QD): 0/21 | Balance disorder: Affected/At Risk (%) (Cohort 3 400 mg QD): (0%) | Basal cell carcinoma: # Events (Cohort 3 400 mg QD): 0 | Basal cell carcinoma: Affected/At Risk (Cohort 3 400 mg QD): 0/21 | Basal cell carcinoma: Affected/At Risk (%) (Cohort 3 400 mg QD): (0%) | Benign prostatic hyperplasia: # Events (Cohort 3 400 mg QD): 0 | Benign prostatic hyperplasia: Affected/At Risk (Cohort 3 400 mg QD): 0/21 | Benign prostatic hyperplasia: Affected/At Risk (%) (Cohort 3 400 mg QD): (0%) | Blepharitis: # Events (Cohort 3 400 mg QD): 2 | Blepharitis: Affected/At Risk (Cohort 3 400 mg QD): 1/21 | Blepharitis: Affected/At Risk (%) (Cohort 3 400 mg QD): (4.76%) | Blister: # Events (Cohort 3 400 mg QD): 1 | Blister: Affected/At Risk (Cohort 3 400 mg QD): 1/21 | Blister: Affected/At Risk (%) (Cohort 3 400 mg QD): (4.76%) | Blood alkaline phosphatase increased: # Events (Cohort 3 400 mg QD): 0 | Blood alkaline phosphatase increased: Affected/At Risk (Cohort 3 400 mg QD): 0/21 | Blood alkaline phosphatase increased: Affected/At Risk (%) (Cohort 3 400 mg QD): (0%) | Blood chloride decreased: # Events (Cohort 3 400 mg QD): 0 | Blood chloride decreased: Affected/At Risk (Cohort 3 400 mg QD): 0/21 | Blood chloride decreased: Affected/At Risk (%) (Cohort 3 400 mg QD): (0%) | Blood cholesterol increased: # Events (Cohort 3 400 mg QD): 1 | Blood cholesterol increased: Affected/At Risk (Cohort 3 400 mg QD): 1/21 | Blood cholesterol increased: Affected/At Risk (%) (Cohort 3 400 mg QD): (4.76%) | Blood creatine increased: # Events (Cohort 3 400 mg QD): 0 | Blood creatine increased: Affected/At Risk (Cohort 3 400 mg QD): 0/21 | Blood creatine increased: Affected/At Risk (%) (Cohort 3 400 mg QD): (0%) | Blood creatine phosphokinase increased: # Events (Cohort 3 400 mg QD): 0 | Blood creatine phosphokinase increased: Affected/At Risk (Cohort 3 400 mg QD): 0/21 | Blood creatine phosphokinase increased: Affected/At Risk (%) (Cohort 3 400 mg QD): (0%) | Blood creatinine increased: # Events (Cohort 3 400 mg QD): 2 | Blood creatinine increased: Affected/At Risk (Cohort 3 400 mg QD): 2/21 | Blood creatinine increased: Affected/At Risk (%) (Cohort 3 400 mg QD): (9.52%)
